# Data published in patent US20080096894A1, “Anti-Bacterial Compounds” (ASTON UNIVERSITY, priority 2005, published 2008).
# Read-outs that look alike come from different tables or passages of the source.
# Legend:
# Test in all cases: MIC, agar dilution, multipoint inoculator
# S. aureus = type: cell-based, Staphylococcus aureus
# Method in brief: (§1)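 Agar dilution on Mueller Hinton agar; a multipoint inoculator delivered 10^4 colony forming units per spot, and the MIC was taken for each compound.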
# MRSA = type: cell-based, methicillin-resistant Staphylococcus aureus
# Method in brief: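 Agar dilution MIC on Mueller Hinton agar, multipoint inoculator delivering 10^4 colony forming units per spot. MRSA values are ranges across ten clinical MRSA strains; S. aureus NCTC 6571 as reference strain.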
# E. faecium = type: cell-based, Enterococcus faecium
# Method in brief: as §1
# S. epidemisis = type: cell-based, Staphylococcus epidermidis
# Method in brief: as §1
# B. bronchiseptica = type: cell-based
# Method in brief: as §1
# E. faecalis = type: cell-based
# Method in brief: as §1
# S. aboni = type: cell-based; conditions: S. aboni NCTC 6017; upper value of MIC reading
# Method in brief: as §1
# S. haemolyticus = type: cell-based
# Method in brief: as §1
# S. maltophilia = type: cell-based
# Method in brief: as §1
# K. pneumoniae = type: cell-based, Klebsiella pneumoniae
# Protocol: (§2) This activity was measured using a multipoint inoculator method as follows. The MIC for each compound was measured using an agar dilution method (Onda, H., et al., Int. J. Antimicrob. Agents. 18, 263 (2001)) (Mueller Hinton agar) by means of a multipoint inoculator delivering 10^4 colony forming units per spot.
# S. marcesens = type: cell-based, Serratia marcescens
# Protocol: as §2
# P. auriginosa = type: cell-based, Pseudomonas aeruginosa; conditions: P. auriginosa NCTC 6749, upper value of MIC reading
# Protocol: as §2
# E. cloacae = type: cell-based, Enterobacter cloacae
# Protocol: as §2
# E. coli = type: cell-based, Escherichia coli; conditions: Escherichia coli, 18 h, upper value of MIC reading
# Protocol: as §2
# [1] = MRSA Isolate 1, upper value of MIC reading, in µg/mL
# [2] = MRSA Isolate 2, upper value of MIC reading, in µg/mL
# [3] = MRSA Isolate 3, upper value of MIC reading, in µg/mL
# [4] = MRSA Isolate 4, upper value of MIC reading, in µg/mL
# [5] = MRSA Isolate 5, upper value of MIC reading, in µg/mL
# [6] = MRSA Isolate 6, upper value of MIC reading, in µg/mL
# [7] = MRSA Isolate 8, upper value of MIC reading, in µg/mL
# [8] = MRSA Isolate 9, upper value of MIC reading, in µg/mL
# [9] = MRSA Isolate 10, upper value of MIC reading, in µg/mL
# [10] = E. faecalis EBH1, upper value of MIC reading
# [11] = E. faecalis Isolate 1, upper value of MIC reading
# [12] = E. faecalis Isolate 2, upper value of MIC reading
# [13] = E. faecalis Isolate 4, upper value of MIC reading
smiles,measurement,setting,value
O=[N+]([O-])c1cc(Br)cc(C=NNc2ccccn2)c1O [HDcl],MIC,"S. aureus; S. aureus Cowan 1, upper value of MIC reading",128 µg/mL
same,MIC,"S. aureus; S. aureus NCTC 6571, upper value of MIC reading",128 µg/mL
same,MIC,"S. aureus; S. aureus NCTC 10788, upper value of MIC reading",128 µg/mL
same,MIC,MRSA; [1],128
same,MIC,MRSA; [2],128
same,MIC,MRSA; [3],128
same,MIC,MRSA; [4],128
same,MIC,MRSA; [5],128
same,MIC,MRSA; [6],128
same,MIC,"MRSA; MRSA Isolate 7, upper value of MIC reading, in µg/mL",128
same,MIC,MRSA; [7],128
same,MIC,MRSA; [8],128
same,MIC,MRSA; [9],128
same,MRSA MIC range,MRSA; panel of ten MRSA strains (clinical isolates),64 to 128 µg/mL
same,MIC,"E. faecium; E. faecium ACTCC 10541, upper value of MIC reading",128 µg/mL
same,MIC,"E. faecium; E. faecium NCTC 7171, upper value of MIC reading",128 µg/mL
same,MIC,"S. epidemisis; S. epidemisis Isolate 1, upper value of MIC reading",128 µg/mL
same,MIC,"S. epidemisis; S. epidemisis NCTC 11047, upper value of MIC reading",64 µg/mL
same,MIC,"B. bronchiseptica; B. bronchiseptica NCTC 8344, upper value of MIC reading",128 µg/mL
same,MIC,E. faecalis; [10],128 µg/mL
same,MIC,E. faecalis; [11],128 µg/mL
same,MIC,E. faecalis; [12],32 µg/mL
same,MIC,"E. faecalis; E. faecalis Isolate 3, upper value of MIC reading",16 µg/mL
same,MIC,E. faecalis; [13],128 µg/mL
same,MIC,"E. faecalis; E. faecalis Isolate 5, upper value of MIC reading",128 µg/mL
same,MIC,"E. faecalis; E. faecalis NCTC 5957, upper value of MIC reading",128 µg/mL
same,MIC,S. aboni,128 µg/mL
same,MIC,"S. haemolyticus; S. haemolyticus Isolate 1, upper value of MIC reading",128 µg/mL
same,MIC,"S. maltophilia; S. maltophilia NCTC 10257, upper value of MIC reading",128 µg/mL
same,MIC,"K. pneumoniae; K. pneumoniae 327, upper value of MIC reading",128 µg/mL
same,MIC,"S. marcesens; S. marcesens 4444, upper value of MIC reading",256 µg/mL
same,MIC,P. auriginosa,128 µg/mL
same,MIC,"E. cloacae; E. cloacae NCTC 11582, upper value of MIC reading",256 µg/mL
"CN(C)c1ccc(/C=N/N=C(\N)c2ccncc2)c2ccccc12 [Compound 4PYdx, N^1-[(4-dimethylamino)-1-naphthylidene]-pyridine-4-carboxamidrazone]",MIC,"S. aureus; Staphylococcus aureus, 18 h",128 µg/mL
same,MIC,"S. aureus; Staphylococcus aureus, NCTC6571, 18 h",128 µg/mL
same,MIC,"S. aureus; Staphylococcus aureus, NCTC10788, 18 h",128 µg/mL
same,MIC,MRSA; [1],128
same,MIC,MRSA; [2],128
same,MIC,MRSA; [3],128
same,MIC,MRSA; [4],128
same,MIC,MRSA; [5],128
same,MIC,MRSA; [6],128
same,MIC,MRSA; [7],128
same,MIC,MRSA; [8],128
same,MIC,MRSA; [9],128
same,MIC,"MRSA; Staphylococcus aureus, 18 h",128 µg/mL
same,MIC,"MRSA; Staphylococcus aureus, MRSA, 18 h, read-out: MRSA MIC range",64 to 128 µg/mL
same,MIC,"E. faecium; Enterococcus faecium, 18 h",256 µg/mL
same,MIC,"E. faecium; Enterococcus faecium, NCTC7171, 18 h",256 µg/mL
same,MIC,"S. epidemisis; Staphylococcus epidermidis, 18 h",128 µg/mL
same,MIC,"S. epidemisis; Staphylococcus epidermidis, NCTC11047, 18 h, S. epidemisis NCTC 11047, upper value of MIC reading, read-out: MIC",64 µg/mL
same,MIC,"B. bronchiseptica; Bordetella bronchiseptica, NCTC8344, 18 h",256 µg/mL
same,MIC,E. faecalis; [10],256 µg/mL
same,MIC,E. faecalis; [11],256 µg/mL
same,MIC,E. faecalis; [12],256 µg/mL
same,MIC,E. faecalis; [13],256 µg/mL
same,MIC,"E. faecalis; Enterococcus faecalis, 18 h",256 µg/mL
same,MIC,"E. faecalis; Enterococcus faecalis, NCTC5957, 18 h",256 µg/mL
same,MIC,S. aboni,32 µg/mL
same,MIC,"S. haemolyticus; Staphylococcus haemolyticus, 18 h",256 µg/mL
same,MIC,"S. maltophilia; Stenotrophomonas maltophilia, NCTC10257, 18 h",128 µg/mL
same,MIC,E. coli; E. coli W3110R+,128 µg/mL
same,MIC,E. coli; E. coli W3110R−,256 µg/mL
same,MIC,"K. pneumoniae; Klebsiella pneumoniae, 18 h",256 µg/mL
same,MIC,"S. marcesens; Serratia marcescens, 18 h",256 µg/mL
same,MIC,"P. auriginosa; Pseudomonas aeruginosa, NCTC6749, 18 h, read-out: MIC",32 µg/mL
same,MIC,"E. cloacae; Enterobacter cloacae, NCTC11582, 18 h",256 µg/mL
